Test results published in patent US20110268757A1, “USE OF PHENOL-SOLUBLE MODULINS FOR VACCINE DEVELOPMENT” (INSTITUT PASTEUR, priority 2008, published 2011).

Experiments:
[1] = system: CD4, CD8, CD11c, CD19, F480 or GR1(CD117) positive splenocytes; conditions: total splenocytes, double staining, 20 μM
Experimental: (§4) Binding assays were carried out using either splenocytes (FIG. 1, panels A B, D, E and G) or bone marrow derived dendritic cells (FIG. 1, panels C and F). The cells were fixed by means of an incubation with a 0.4% glutaraldehyde solution for 15 minutes at 4° C. 5×10^5 fixed cells were incubated in the presence of 20 μM CFSE αMod-[sequence] (FIG. 1, panels A, B and C), or CFSE γMod-[sequence] (FIG. 1, panels D, E, F and G). In some assays, and to study the specificity of CFSE labeled peptide binding, these incubations were carried out in the presence or absence of the unlabeled peptides αMod-[sequence], γMod-[sequence] or [sequence] (100 μM) (panels B and E). Also, we carried out binding assays using the CFSE labeled peptide CFSE-OVA (235-264) as a negative control (FIG. 1, panels A, C, D and F). After 30 minutes of incubation at 4° C., two washings with PBS were carried out and the performed labeling was analyzed by flow cytometry. In some experiments (FIG. 1G), double staining was carried out using anti-CD4, CD8, CD11c, CD19, F480 or GR1(CD117) antibodies labeled with phycoerythrin (Pharmingen) together with the CFSE-γMod-[sequence] peptide. In these cases, the labeling with the specific antibodies was carried out before fixing the cells with glutaraldehyde.

[2] = system: splenocytes from C57BL/6 TLR2KO mice; test: Binding of CFSE labeled peptides to fixed splenocytes from TLR2 KO mice (flow cytometry); type: cell-based, mouse; conditions: 20 μM peptide, 30 minutes at 4° C.
Experimental: Mouse splenocytes were purified from C57BL/6 TLR2KO mice after homogenizing the spleen. […] 5×10^5 fixed splenocytes were incubated in the presence of 20 μM CFSE γMod-SIINFEKL, CFSE αMod-SIINFEKL or CFSE-OVA (235-264) control peptide to show the binding specificity.

[3] = system: bone marrow derived dendritic cells; test: Binding of CFSE labeled peptides to bone marrow derived dendritic cells (flow cytometry); type: cell-based, mouse; conditions: 20 μM peptide, fixed cells, 30 minutes at 4° C.
Experimental: Dendritic cells were grown from bone marrow cells. After lysing the erythrocytes with ACK lysis buffer, the cells were washed and lymphocytes and granulocytes were removed by means of incubation with a mixture of antibodies against CD4 (GK1; ATCC, Manassas, Va.), CD8 (53.6.72; ATCC), Ly-6G/Gr1 (BD-Pharmingen; San Diego Calif.) and CD45R/B220 (BD-Pharmingen), followed by rabbit supplement. The remaining cells grew in 12 culture plates in complete medium with 10^6 cells/ml supplemented with 20 ng/ml of mGM-CSF and 20 ng/ml of mIL-4 (both from Peprotech; London, GB). Every 2 days the medium was substituted with fresh medium containing cytokines. On day 7, non-adherent dendritic cells were collected, and cultured in the presence or absence of 50 μM of modulin peptides or of 1 μg/ml of LPS (Sigma) and incubated for 48 hours at 37° C. and 5% CO2. After this period, the cells were isolated and incubated with anti IAb, CD54 and CD86 antibodies (Pharmingen). In parallel experiments, the dendritic cells were incubated with the indicated stimuli for 16 hours, after which the expression of the messenger RNA for the p40 molecules of IL-12 and of TNF-α was analyzed.

mouse splenocytes = test: Binding of CFSE labeled peptides to glutaraldehyde-fixed splenocytes (flow cytometry); type: cell-based; conditions: unlabeled competitor 100 μM
Experimental: as §4

[4] = system: IFNγ-producing cells in response to the SIINFEKL peptide; test: ELISPOT of IFNγ-producing cells specific for SIINFEKL after immunization; type: in vivo, C57BL/6 mice; conditions: for IFNγ-producing cells in response to SIINFEKL (ELISPOT): 5 nmoles peptide plus 50 μg poly I:C, seven days after immunization; for IFN-γ-producing cells specific for SIINFEKL (ELISPOT): Example 4, C57BL/6 wild type mice, 5 nmoles peptide with 50 μg poly I:C, seven days
Experimental: (§1) C57BL6 mice were intravenously immunized intravenously with 5 nmoles of the indicated peptides in combination with 50 μg of the TLR3 ligand poly I:C. In some cases, the peptides were immunized in the presence of TLR2 (peptidoglycan), TLR4 (LPS or the EDA protein) or TLR9 (CpG) ligand. Seven days after the immunization, the mice were intravenously injected with a mixture of 5×10^6 splenocytes, half of which had been previously labeled with a dose of 0.25 μM C and the other half with 2.5 uM CFSE and the SIINFEKL peptide (10 μg/ml). On the following day, the mice were sacrificed and the splenocytes were analyzed by flow cytometry to quantify the number of cells with high CFSE labeling with respect to the cells with low CFSE labeling. Thus, the percentage of cell lysis of the cells incubated with the cytotoxic SIINFEKL peptide can be calculated in an experiment called in vivo killing.
For the analysis of IFNγ-producing cells specific for SIINFEKL and induced in vivo by the immunizations, ELISPOT experiments were carried out using a BD-pharmingen kit (San Diego, Calif.) and according to the instructions of the manufacturer. Briefly, the plates (Multiscreen HTS, Millipore, Bedford, Mass.) incubated overnight with the anti-IFNγ antibody were blocked for 2 hours with HL-1 medium (Biowhittaker, Verviers, Belgium) containing 10% horse serum. Thus, 5×10^5 splenocytes were incubated in triplicate in the absence or in the presence of the antigens at 37° C. and 5% CO2. On the following day, the plates were washed with PBS and incubated with biotinylated anti-IFNγ antibody (2 mg/ml). After two hours, the plates were washed and incubated with a 1/100 dilution of streptavidin-peroxidase. One hour later, the wells were washed and developed using the AEC substrate set (BD-Pharmingen). The colorimetric reaction was stopped with distilled water and the number of spots was quantified using an ELISPOT automatic reader (CTL, Aalen, Germany).
(§2) For the analysis of IFNγ-producing cells in the presence of SIINFEKL and induced in vivo by the immunizations, ELISPOT experiments were carried out using a BD-pharmingen kit (San Diego, Calif.) and according to the instructions of the manufacturer, in the same manner as in Example 3.

[5] = system: T cells from OT-1 transgenic mice; test: Antigen presentation assay: proliferation of OT-1 T cells (tritiated thymidine); type: cell-based, mouse; conditions: dendritic cells incubated with 10 μM peptide
Experimental: Dendritic cells derived from bone marrow were cultured in the presence or absence of 10 μM of the indicated peptides (FIG. 3). Forty hours later, the cells were washed and distributed in 96-well plates at different concentrations and incubated in the presence of 10^5 T cells/well obtained from OT-1 transgenic mice (which express a specific T receptor for the SIINFEKL peptide of ovalbumin. Seventy-two hours later, tritiated thymidine was added to the cultures and six hours later the cells were harvested and the incorporated thymidine was analyzed in a scintillation counter (Topcount Packard).

[6] = system: splenocytes pulsed with the SIINFEKL peptide; test: In vivo killing assay against SIINFEKL-pulsed splenocytes in TLR2 KO mice; conditions: mice lacking TLR2, 5 nmoles peptide with 50 μg poly I:C, seven days; level similar to wild type
Experimental: (§3) C57BL6 wild type mice and knockout mice were immunized for TLR2 with the aim of studying the dependence on TLR2 in the immunostimulating capacity of modulin-derived peptides. Thus, different mice were injected with 5 nmoles of the indicated peptides or with PBS in combination with 50 μg of the TLR3 ligand poly I:C. Seven days after the immunization, the mice were intravenously injected with a mixture of 5×10^6 splenocytes, half of which had been previously labeled with a dose of 0.25 μM C and the other half with 2.5 μM CFSE and the SIINFEKL peptide (10 μg/ml). On the following day, the mice were sacrificed and the splenocytes were analyzed by flow cytometry to quantify the number of cells with high CFSE labeling with respect to the cells with low CFSE labeling in the same manner as in Example 3.

EG7OVA tumor cells [7] = test: Protection against the challenge with EG7OVA tumor cells after immunization; type: in vivo, C57BL/6 mice; conditions: 5 nmoles peptide with poly I:C
Experimental: Protection against the challenge with EG7 tumor cells expressing the OVA protein C57BL6 mice were subcutaneously immunized with 5 nmol of the indicated peptides in combination with poly I:C. […] In some experiments, mice were first challenged s.c with 5×10^5 cells and when tumors reached 5 mm in diameter they were treated with the indicated peptide. The tumor growth was controlled with a gage. Mice were sacrificed when the tumor reached a volume greater than 4 cm^3. Kaplan-Meier plot of mice survival for each immunogen is depicted.

[8] = system: IFNγ-producing cells in response to the SIINFEKL peptide; test: ELISPOT of IFNγ-producing cells specific for SIINFEKL in TLR2 KO mice; type: in vivo; conditions: mice lacking TLR2, 5 nmoles peptide with 50 μg poly I:C, seven days; level similar to wild type
Experimental: as §2

EG7OVA tumor cells [9] = test: Treatment of mice bearing established EG7OVA tumors; type: in vivo, C57BL/6 mice; conditions: EG7OVA tumors of 5 mm diameter at treatment, peptide plus poly I:C, p<0.05
Experimental: Protection against the challenge with EG7 tumor cells expressing the OVA protein C57BL6 mice were subcutaneously immunized with 5 nmol of the indicated peptides in combination with poly I:C. Seven days after the immunization, the mice were subcutaneously injected with 5×10^5 or with 5×10^7 EG7OVA cells. In some experiments, mice were first challenged s.c with 5×10^5 cells and when tumors reached 5 mm in diameter they were treated with the indicated peptide. The tumor growth was controlled with a gage. Mice were sacrificed when the tumor reached a volume greater than 4 cm^3. Kaplan-Meier plot of mice survival for each immunogen is depicted.

[10] = system: splenocytes pulsed with the SIINFEKL peptide; test: In vivo killing assay against SIINFEKL-pulsed splenocytes after immunization; set-up: species or system C57BL/6 mice; conditions: for specific cytotoxic activity against SIINFEKL (in vivo killing): 5 nmoles peptide plus 50 μg poly I:C, seven days after immunization; for effect of combination with TLR3 ligand on activation of the cytotoxic response (in vivo killing): 5 nmoles peptide with 50 μg TLR3 ligand (poly I:C); for effect of combination with TLR3 ligand on activation of the cytotoxic response (in vivo killing) / effect of combination with TLR9 ligand on activation of the cytotoxic response (in vivo killing) / cytotoxic T responses against SIINFEKL target cells (in vivo killing): seven days; for effect of combination with TLR9 ligand on activation of the cytotoxic response (in vivo killing): 5 nmoles peptide with 50 μg TLR9 ligand (CpG); for cytotoxic T responses against SIINFEKL target cells (in vivo killing): Example 4, C57BL/6 wild type mice, 5 nmoles peptide with 50 μg poly I:C
Experimental: as §1, with “Seven days after the immunization, the mice were intravenously injected with a mixture of 5×10^6 splenocytes, half of which had been previously labeled with a dose of 0.25 μM C and the other half with 2.5 uM CFSE and the SIINFEKL peptide (10 μg/ml).” left out
as §3, with “Seven days after the immunization, the mice were intravenously injected with a mixture of 5×10^6 splenocytes, half of which had been previously labeled with a dose of 0.25 μM C and the other half with 2.5 μM CFSE and the SIINFEKL peptide (10 μg/ml).” left out

[11] = system: IFN-γ producing cells in the presence of the peptide E7(49-57); test: ELISPOT of IFN-γ producing cells against peptide E7(49-57) after immunization; type: in vivo, C57BL6 mice; conditions: 5 nmoles peptide with 50 μg poly I:C, seven days after immunization
Experimental: C57BL6 mice were intravenously immunized with 5 nmoles of the indicated peptides in combination with 50 μg of the TLR3 ligand poly I:C. For the analysis of the IFN-γ producing cells in the presence of the peptide E7(49-57) and induced in vivo by the immunizations, the animals were sacrificed 7 days after the immunizations and ELISPOT experiments were conducted using a BD-pharmingen kit (San Diego, Calif.) as indicated above and using peptide E7(49-57) as an antigen.

[12] = system: TC-1 tumor cells (expressing the E7 protein of the HPV-16 virus); test: Treatment of mice carrying TC1 subcutaneous tumors; type: in vivo, C57B/6 mice; conditions: TC1 tumors of 8 mm diameter, i.v. peptide plus 50 μg/ml poly I:C, second immunization seven days later
Experimental: The C57B/6 mice were subcutaneously injected with 5×10^5 TC-1 tumor cells (expressing the E7 protein of the HPV-16 virus). After 25 days, when the tumor reaches a diameter of 8 mm, the mice are intravenously treated with PBS (B), with peptide E7(49-57) plus 50 μg/ml poly I:C(C), or with peptide αMod-E7(49-57) plus 50 μg/ml poly I:C (D). Seven days later, the mice received a second immunization of the same immunogens. The tumor size, presented as the average of two perpendicular diameters, was measured at regular intervals using a gauge. The number of tumor-free mice relative to the total number of animals per group is included for each treatment.

Substance | IFNγ-producing cells in response to SIINFEKL (ELISPOT) [4] | IFN-γ-producing cells specific for SIINFEKL (ELISPOT) [4] | proliferation of OT-1 T lymphocytes stimulated by peptide-incubated dendritic cells [5] | cytotoxic T responses against SIINFEKL target cells (in vivo killing) [6] | IFN-γ-producing cells specific for SIINFEKL (ELISPOT) [8] | specific cytotoxic activity against SIINFEKL (in vivo killing) [10] | effect of combination with TLR3 ligand on activation of the cytotoxic response (in vivo killing) [10] | effect of combination with TLR9 ligand on activation of the cytotoxic response (in vivo killing) [10] | cytotoxic T responses against SIINFEKL target cells (in vivo killing) [10] | further results
CFSE-MAADIISTIGDLVKWIIDTVNKFKKSIINFEKL [CFSE-γMod-SIINFEKL] | – | – | – | – | – | – | – | – | – | percentage of CD4+ cells stained with the CFSE peptide [1]: approximately 24.4%; percentage of CD8+ cells stained with the CFSE peptide [1]: ~17.8%; percentage of CD11c cells stained with the CFSE peptide [1]: ~62.1%; percentage of CD19 cells stained with the CFSE peptide [1]: ~52.8%; percentage of F418 cells stained with the CFSE peptide [1]: ~66.2%; percentage of GR1+ cells stained with the CFSE peptide [1]: ~27.3%; binding of CFSE labeled peptide to the surface of TLR2 KO splenocytes [2]: still retained the capacity to bind; binding of CFSE labeled peptide to bone marrow derived dendritic cells [3]: able to stain bone marrow derived dendritic cells
MAADIISTIGDLVKWIIDTVNKFKKSIINFEKL [γMod-SIINFEKL] | production of IFNγ | is induced | significantly better than OVA (235-264) peptide | also observed | also observed | strong cytotoxic responses | synergistic effect | synergistic effect | capable of inducing cytotoxic T responses | reduction of the bright fluorescence of CFSE γMod-SIINFEKL on splenocytes by unlabeled peptide (mouse splenocytes; 20 μM CFSE γMod-SIINFEKL): reduced the bright fluorescence; protection from tumor growth after EG7OVA challenge (EG7OVA tumor cells [7]; 7×10^5 EG7OVA cells s.c. seven days after immunization (FIG. 5B)): protected the mice from tumor growth; mice rejecting the established tumor (EG7OVA tumor cells [9]): about 38%
MADVIAKIVEIVKGLIDQFTQKRAHYNIVTF [αMod-E7(49-57)] | – | – | – | – | – | – | – | – | – | response against the cytotoxic peptide E7 (49-57) (ELISPOT, IFN-γ producing cells) [11]: induces a specific cytotoxic response; number of tumor-free (cured) mice relative to the total number of mice [12]: 11 of 11
MADVIAKIVEIVKGLIDQFTQKSIINFEKL [αMod-SIINFEKL] | production of IFNγ | is induced | significantly better than OVA (235-264) peptide | also observed | also observed | strong cytotoxic responses | synergistic effect | synergistic effect | capable of inducing cytotoxic T responses | inhibition of the CFSE αMod-SIINFEKL signal on splenocytes by unlabeled peptide (mouse splenocytes; 20 μM CFSE αMod-SIINFEKL): significantly inhibited; protection from tumor growth after EG7OVA challenge (EG7OVA tumor cells [7]; 5×10^5 EG7OVA cells s.c. seven days after immunization (FIG. 5A)): protected the mice from tumor growth
